# Data taken from patent publication US20120207763A1, “PYRROLOPYRIMIDINE COMPOUNDS AND THEIR USES” (ASTEX THERAPEUTICS LIMITED, priority 2006, published 2012).
# Target: T1, JAK-3 (Homo sapiens, UniProt P52333)
# T1 construct: GST fusion constructs of the kinase domains of both enzymes are used; GST
# Assay: JAK LANCE enzymatic assay (JAK-3)
# Type: biochemical
# Details: Table A; read-out: Jak-3/ IC50
# From the text: Binding of cytokines and certain growth factors to their respective receptors trigger activation of Janus kinases, which phosphorylate members of the STAT family. Phosphorylated STAT molecules dimerize and migrate to the nucleus where they bind to DNA and initiate transcription of responsive genes. Inhibitors of pathways downstream of cytokine/growth factor receptors have therapeutic potential for several indications. An enzymatic assay for JAK-3 and JAK-2 has been developed to identify T-cell selective inhibitors. GST fusion constructs of the kinase domains of both enzymes are used and a biotinylated, tyrosine containing peptide serves as substrate. Phosphorylation of this peptide by the respective kinase is quantified with an europium-labeled anti-phosphotyrosine antibody (Eu-PT66) as energy donor and a streptavidin-allophycocyanine conjugate (SA-APC) as energy acceptor. The assay has been established in a 384 well format.
# In the JAK LANCE™ assay, a biotinylated peptide is incubated together with compounds and ATP in buffer. The phosphorylation reaction starts after addition of JAK kinase. After incubation at RT the reaction is stopped with EDTA and the product detected by addition Streptavidin-Allophycocyanin and Europium-labeled antiphosphotyrosine antibody. The signal is measured using an EnVision Reader. Exc: 320 nm, Em, Donor: 615 nm and Em, Acceptor: 665 nm in time resolved fashion with a delay of […].
# T1 sequence (P52333 822-1111 limits assumed): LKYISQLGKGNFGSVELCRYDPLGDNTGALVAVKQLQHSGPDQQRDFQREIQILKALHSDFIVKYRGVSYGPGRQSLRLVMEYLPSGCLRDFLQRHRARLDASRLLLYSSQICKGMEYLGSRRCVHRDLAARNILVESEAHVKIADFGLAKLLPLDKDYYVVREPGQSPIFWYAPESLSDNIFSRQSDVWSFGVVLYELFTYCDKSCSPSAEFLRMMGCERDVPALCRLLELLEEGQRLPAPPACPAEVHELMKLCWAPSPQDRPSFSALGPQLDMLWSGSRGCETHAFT
row,SMILES,IC50 [nM]
1,CCC(CC)N1C(=O)Cc2cnc(Nc3ccc(N4CCN(C)CC4)cc3)nc21,≤ 100
2,CCC(CC)N1C(=O)Cc2cnc(Nc3ccc(N4CCOCC4)cc3)nc21,≤ 100
3,CCC(CC)N1C(=O)Cc2cnc(Nc3ccc(N4CCCCC4)cc3)nc21,≥ 100
4,CCC(CC)N1C(=O)Cc2cnc(Nc3ccc(NC(C)=O)cc3)nc21,≥ 100
5,CCN1C(=O)Cc2cnc(Nc3ccc(N4CCN(C)CC4)cc3)nc21,≥ 100
6,CCC(CC)N1C(=O)Cc2cnc(Nc3ccc(N4CCN(C(C)=O)CC4)cc3)nc21,≤ 100
7,CCC(CC)N1C(=O)Cc2cnc(Nc3cc(C(=O)N4CCOCC4)ccc3OC)nc21,≥ 100
8,CN1CCN(c2ccc(Nc3ncc4c(n3)N(C3CC3)C(=O)C4)cc2)CC1,≥ 100
9,CN1CCN(C(=O)c2cccc(Nc3ncc4c(n3)N(C3CC3)C(=O)C4)c2)CC1,≥ 100
10,CN1CCN(c2ccc(Nc3ncc4c(n3)NC(=O)C4)cc2)CC1,≥ 100
11,O=C1Cc2cnc(Nc3ccc(C(=O)N4CCOCC4)cc3)nc2N1,≥ 100
12,O=C1Cc2cnc(Nc3ccc(N4CCOCC4)cc3)nc2N1,≥ 100
13,CCC(CC)N1C(=O)Cc2cnc(Nc3cc(C(=O)N4CCOCC4)ccc3F)nc21,≥ 100
14,CCC(CC)N1C(=O)Cc2cnc(Nc3cccc(C(=O)N4CCOCC4)c3)nc21,≥ 100
15,O=C1Cc2cnc(Nc3ccc(N4CCOCC4)cc3)nc2N1C1CC1,≥ 100
16,O=C(c1ccc(Nc2ncc3c(n2)N(C2CC2)C(=O)C3)cc1)N1CCOCC1,≥ 100
17,CN1CCN(c2ccc(Nc3ncc4c(n3)N(C3CCCCC3)C(=O)C4)cc2)CC1,≤ 100
18,CN1CCN(C(=O)c2cccc(Nc3ncc4c(n3)N(C3CCCCC3)C(=O)C4)c2)CC1,≥ 100
19,CN1CCN(c2ccc(Nc3ncc4c(n3)N(C3CCCC3)C(=O)C4)cc2)CC1,≥ 100
20,O=C1Cc2cnc(Nc3ccc(N4CCOCC4)cc3)nc2N1C1CCCC1,≥ 100

row,SMILES,IC50 [nM]
1,CCC(CC)N1C(=O)Cc2cnc(Nc3ccc(N4CCN(C)CC4)nc3)nc21,≥ 100
2,CCC(CC)N1C(=O)Cc2cnc(Nc3ccc(C(=O)N4CCN(C)CC4)cc3)nc21,≥ 100
3,CCC(CC)N1C(=O)Cc2cnc(Nc3cc(NC(=O)c4ccncc4)ccc3OC)nc21,≥ 100
4,CCC(CC)N1C(=O)Cc2cnc(Nc3cc(NC(=O)c4ccncc4)ccc3F)nc21,≥ 100
5,CCC(CC)N1C(=O)Cc2cnc(Nc3ccc(NS(=O)(=O)c4ccc(C)cc4)cc3)nc21,≥ 100
6,CCC(CC)N1C(=O)Cc2cnc(Nc3ccc(-n4cncn4)cc3)nc21,≥ 100
7,CCC(CC)N1C(=O)Cc2cnc(Nc3cccc(-c4nncn4C)c3)nc21,≥ 100
8,CCC(CC)N1C(=O)Cc2cnc(Cl)nc21,≥ 100
9,CCC(CC)N1C(=O)Cc2cnc(Nc3ccc(N4CCC(OC(=O)c5ccccc5)CC4)cc3)nc21,≥ 100
10,CCC(CC)N1C(=O)Cc2cnc(Nc3ccc(N4CCC(N5CCN(C)CC5)CC4)cc3)nc21,≤ 100
11,CCC(CC)N1C(=O)Cc2cnc(Nc3ccc(N4CCN(C)CC4)c(F)c3)nc21,≤ 100
12,CCC(CC)N1C(=O)Cc2cnc(Nc3ccc(S(=O)(=O)Nc4ccccn4)cc3)nc21,≥ 100
13,CCC(CC)N1C(=O)Cc2cnc(Nc3cccc(NC(=O)c4ccncc4)c3)nc21,≤ 100
14,CCC(CC)N1C(=O)Cc2cnc(Nc3ccc(N4CCC(O)CC4)cc3)nc21,≤ 100
15,CC(=O)N1CCN(c2ccc(Nc3ncc(Br)c(Nc4ccccn4)n3)cc2)CC1,≤ 100
16,CCC(CC)N1C(=O)Cc2cnc(Nc3ccc4[nH]ncc4c3)nc21,≥ 100
17,CCC(CC)N1C(=O)Cc2cnc(Nc3ccc(OCCN4CCCC4)cc3)nc21,≤ 100
18,CCC(CC)N1C(=O)Cc2cnc(Nc3ccc(S(=O)(=O)N4CCN(C)CC4)cc3)nc21,≥ 100
19,CCC(CC)N1C(=O)Cc2cnc(Nc3cccc(OCCN4CCCC4)c3)nc21,≤ 100
20,CCC(CC)N1C(=O)Cc2cnc(Nc3ccc(N4CCN(S(C)(=O)=O)CC4)cc3)nc21,≤ 100

row,SMILES,IC50 [nM]
1,CCC(CC)n1c(=O)[nH]c2cnc(Nc3ccc(N4CCN(C(C)=O)CC4)cc3)nc21,≥ 100
2,CCC(CC)N1C(=O)C(C)(C)c2cnc(Nc3ccc(N4CCN(C(C)=O)CC4)cc3)nc21,≥ 100
3,CCC(CC)N1C(=O)Cc2cnc(Nc3ccc(C(=O)NCCN(C)C)cc3)nc21,≥ 100
4,CCC(CC)N1C(=O)Cc2cnc(Nc3ccc(C(=O)NCCN4CCCCC4)cc3)nc21,≥ 100
5,CCC(CC)N1C(=O)Cc2cnc(Nc3ccc(C(=O)NCCN4CCN(C)CC4)cc3)nc21,≥ 100
6,CCC(CC)N1C(=O)Cc2cnc(Nc3cccc(N(C)CCN4CCCC4)c3)nc21,≥ 100
7,CCC(CC)n1ccc2cnc(Nc3ccc(N4CCN(C)CC4)cc3)nc21,≤ 100
8,CCC(CC)n1ccc2cnc(Nc3cccc(NC(=O)c4ccncc4)c3)nc21,≤ 100
9,CCC(CC)N1C(=O)Cc2cnc(Nc3ccc(N4CCN(C)CC4)cn3)nc21,≥ 100
10,CCC(CC)N1C(=O)Cc2cnc(Nc3ccc(N4CCN(C(C)=O)CC4)cn3)nc21,≥ 100
11,COc1ccc(C(=O)N2CCOCC2)cc1Nc1ncc2c(n1)NC(=O)C2 [drawing 17],≥ 100
12,COc1ccc(C(=O)N2CCN(C)CC2)cc1Nc1ncc2c(n1)NC(=O)C2 [drawing 18],≥ 100
13,COc1ccc(C(=O)N2CCOCC2)cc1Nc1ncc2c(n1)NC(=O)C2 [drawing 19],≥ 100
14,COc1ccc(C(=O)N2CCN(C)CC2)cc1Nc1ncc2c(n1)NC(=O)C2 [drawing 20],≥ 100
15,CCC(CC)n1ccc2cnc(Nc3ccc(N4CCN(C(C)=O)CC4)cc3)nc21 [drawing 51],≤ 100
16,CCC(CC)n1ccc2cnc(Nc3ccc(N4CCN(C(C)=O)CC4)cn3)nc21 [drawing 81],≥ 100
17,CCC(CC)n1ccc2cnc(Nc3ccc(N4CCN(C)CC4)cn3)nc21 [drawing 82],≥ 100
18,CCC(CC)n1ccc2cnc(Nc3ccc(N4CCN(C)CC4)c(F)c3)nc21 [drawing 83],≤ 100

# Same assay, conditions: Table B; read-out: Jak-3 Lance/ IC50 [nmol I-1]
row,SMILES,IC50 [nM]
1,Cc1cn(C2CCCC2)c2nc(Nc3ccc(N4CCN(C)CC4)cc3)ncc12,≥ 100
2,Cc1cn(C2CCCCC2)c2nc(Nc3ccc(N4CCNCC4)cc3)ncc12,≥ 100
3,Cc1cn(C2CCCC2)c2nc(Nc3ccc(N4CCNCC4)cn3)ncc12 [drawing 97],≥ 100
4,CCC(CC)n1ccc2cnc(Nc3ccc(C(=O)NC4CCCC4)cc3)nc21 [drawing 99],≤ 100
5,CCC(CC)n1ccc2cnc(NC3CC3)nc21 [drawing 100],≥ 100
6,CCC(CC)n1cc(C)c2cnc(Nc3ccc(N4CCN(C(C)=O)CC4)cc3)nc21 [drawing 101],≥ 100
7,CCC(CC)n1cc(C)c2cnc(Nc3ccc(N4CCN(C)CC4)cc3)nc21 [drawing 103],≥ 100
8,CCC(CC)N1C(=O)C(C)(C)c2cnc(Nc3ccc(N4CCN(C)CC4)cc3)nc21 [drawing 105],≥ 100
9,CC(=O)N1CCN(c2ccc(Nc3ncc4ccn(C5CCCC5)c4n3)cc2)CC1 [drawing 111],≥ 100
10,CCC(CC)N1C(=O)C(C)(C)c2cnc(Nc3ccc(N4CCNCC4)cc3)nc21 [drawing 112],≥ 100
11,Cc1cn(C2CCCCC2)c2nc(Nc3ccc(N4CCN(C)CC4)cc3)ncc12 [drawing 115],≥ 100
12,CCC(CC)n1cc(C)c2cnc(Nc3ccc(C(=O)NC4CCCC4)cc3)nc21 [drawing 116],≥ 100
13,CCOC(OCC)c1cc2cnc(Nc3ccc(N4CCN(C(C)=O)CC4)cc3)nc2n1C(CC)CC [drawing 117],≥ 100
14,CCC(CC)n1c(C=O)cc2cnc(Nc3ccc(N4CCN(C(C)=O)CC4)cc3)nc21 [drawing 118],≤ 100
15,CCC(CC)n1c(CO)cc2cnc(Nc3ccc(N4CCN(C(C)=O)CC4)cc3)nc21 [drawing 119],≤ 100
16,CC(=O)N1CCN(c2ccc(Nc3ncc4c(C)cn(C5CCCCC5)c4n3)cc2)CC1 [drawing 120],≥ 100
17,Cc1cn(C2CC2)c2nc(Nc3ccc(N4CCN(C)CC4)cc3)ncc12 [drawing 121],≥ 100
18,Cc1cn(C2CC2)c2nc(Nc3ccc(N4CCNCC4)cn3)ncc12 [drawing 123],≥ 100
19,CCC(CC)n1c(C)cc2cnc(Nc3ccc(C(=O)NC4CCCC4)cc3)nc21 [drawing 124],≥ 100
20,CCC(CC)n1c(C)cc2cnc(Nc3ccc(N4CCNCC4)cc3)nc21 [drawing 125],≤ 100
21,Cc1cn(C2CCCCC2)c2nc(Nc3ccc(N4CCNCC4)cn3)ncc12 [drawing 127],≥ 100

# Target: CDK2/Cyclin-A kinase complex (Homo sapiens, UniProt P24941)
# Assay: CDK2 IMAP fluorescence polarization assay
# Type: biochemical
# Details: Table E; read-out: CDK2cyA IMAP/IC50 [umol l − 1]
# From the text: In order to test the CDK2 activity of the compounds of the invention, the CDK2 assay is a flourescence polarization assay, where the enzyme is a purified active CDK2/Cyclin-A kinase complex and the substrate is a synthesized peptide derived from Histone H1. This assay utilizes the IMAP technology from Molecular Devices. The active CDK2/Cyclin-A complex phosphorylates the peptide substrate, which is conjugated with the TAMRA tag. The phosphorylated site is then recognized by a metal containing molecule that interacts with the TAMRA tag to induce a high flourescence polarization. The compounds that inhibit the CDK2 kinase activity would inhibit the flourescence output of the assay.
row,SMILES,IC50 [nM]
1,Cc1cn(C2CCCC2)c2nc(Nc3ccc(N4CCCCC4)cc3)ncc12 [Example 278],> 10000

# Target: hCDK1/B (Homo sapiens, UniProt P06493)
# Assay: hCDK1/B assay
# Type: biochemical
# Details: Table E; read-out: hCDK1/B/IC50 [umol l − 1]
# Chain of hCDK1/B (P06493 whole entry): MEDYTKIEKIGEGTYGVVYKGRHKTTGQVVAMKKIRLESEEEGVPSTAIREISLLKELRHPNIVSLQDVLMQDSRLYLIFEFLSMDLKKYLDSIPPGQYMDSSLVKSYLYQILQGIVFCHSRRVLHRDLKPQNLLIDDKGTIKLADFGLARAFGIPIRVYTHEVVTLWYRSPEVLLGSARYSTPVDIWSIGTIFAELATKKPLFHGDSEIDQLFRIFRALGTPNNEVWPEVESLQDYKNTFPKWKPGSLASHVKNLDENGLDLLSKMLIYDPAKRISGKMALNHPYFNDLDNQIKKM
# Chain of hCDK1/B (P14635 whole entry partner): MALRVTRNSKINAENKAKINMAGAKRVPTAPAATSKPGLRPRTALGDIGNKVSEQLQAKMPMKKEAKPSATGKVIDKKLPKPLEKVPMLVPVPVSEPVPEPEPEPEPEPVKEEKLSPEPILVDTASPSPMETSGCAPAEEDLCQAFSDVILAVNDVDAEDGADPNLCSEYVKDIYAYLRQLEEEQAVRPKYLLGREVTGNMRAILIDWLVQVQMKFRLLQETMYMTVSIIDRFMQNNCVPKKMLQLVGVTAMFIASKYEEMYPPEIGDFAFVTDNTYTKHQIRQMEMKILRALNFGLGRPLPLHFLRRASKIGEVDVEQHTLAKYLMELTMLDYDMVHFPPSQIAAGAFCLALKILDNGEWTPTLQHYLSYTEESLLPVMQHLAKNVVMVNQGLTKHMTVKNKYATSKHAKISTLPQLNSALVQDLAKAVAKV
row,SMILES,IC50 [nM]
1,Cc1cn(C2CCCC2)c2nc(Nc3ccc(N4CCNCC4)cn3)ncc12 [Example 267],> 10000
2,Cc1cn(C2CCCC2)c2nc(Nc3ccc(N4CCCCC4)cc3)ncc12 [Example 278],> 10000
